Legend:
[1] = molecular target: T1, FLAG-tagged Vanin-1 (AA 22-493, T26I) (Homo sapiens, UniProt O95497, T26I); assay: Vanin-1 enzymatic assay (pantothenic acid formation, RapidFire mass spectrometry); format: biochemical; conditions: 0.1 nM FLAG-tagged Vanin-1, 3 μM D-pantethine, room temperature; geometric mean in case of multiple measurements; read-out: VNN-1 IC50
T1 construct: FLAG-tagged Vanin-1 (AA 22-493, T26I, produced internally); FLAG; made in house
T1 sequence (O95497 22-493 T26I): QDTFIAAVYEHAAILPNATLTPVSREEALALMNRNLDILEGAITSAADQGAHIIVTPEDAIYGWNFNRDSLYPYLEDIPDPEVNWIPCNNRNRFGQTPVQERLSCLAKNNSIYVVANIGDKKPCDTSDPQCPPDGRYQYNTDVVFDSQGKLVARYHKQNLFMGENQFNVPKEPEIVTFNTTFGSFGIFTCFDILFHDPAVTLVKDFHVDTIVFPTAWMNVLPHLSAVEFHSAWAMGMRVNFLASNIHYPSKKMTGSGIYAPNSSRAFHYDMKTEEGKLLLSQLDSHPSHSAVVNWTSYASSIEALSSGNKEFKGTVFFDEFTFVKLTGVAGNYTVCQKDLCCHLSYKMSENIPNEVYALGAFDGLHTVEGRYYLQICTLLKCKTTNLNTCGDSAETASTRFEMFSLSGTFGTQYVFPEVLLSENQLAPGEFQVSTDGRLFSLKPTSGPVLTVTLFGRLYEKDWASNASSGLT
Protocol: Description of Biological Properties Vanin-1 Enzymatic Assay:
The test compounds are dissolved in 100% DMSO at a concentration of 10 mM and in a first step diluted in DMSO to a concentration of 5 mM, followed by serial dilution steps in 100% DMSO. Dilution factor and number of dilution steps may vary according to needs. Typically 8 different concentrations by 1:5 dilutions are prepared, a further intermediate dilutions of the substances is carried out with assay buffer resulting in 1% final DMSO concentration in the assay.
0.1 nM of FLAG-tagged Vanin-1 (AA 22-493, T26I, produced internally) and test compounds are incubated at room temperature for 20 minutes in assay buffer (1 mM DTT, 0.0025% Brij-35, 50 mM HEPES, pH7.5). D-Pantethine (Sigma, Cat #P2125-5G) in assay buffer is added (final concentration 3 μM) and incubated for additional 30 minutes at room temperature. Total assay volume typically is 40 μl but might be adjusted according to needs. Reaction is stopped by adding equal volume of stop solution as the reaction mixture to reach 100 nM HD-pantothenic acid (as an internal standard) and 1% TFA. Assay plates are centrifuged for 2 minutes and the formation of pantothenic acid is detected by RapidFire Mass Spectrometry (mobile phase A: 0.1% formic acid and 0.01% trifluoroacetic acid in water; mobile phase B: 47.5% acetonitrile, 47.5% methanol, 0.1% formic acid and 0.01% trifluoroacetic acid in water) using a C18, 12 μL cartridge (Agilent Cat #G9205A).
The values given in Table I result from measurements of one or more samples. In case of multiple measurements the geometric mean values are given.

Pantetheinase (vanin) = assay: Human Whole Blood assay (vanin activity by pantothenic acid formation); format: cell-based; conditions: pantethine substrate, 5 min reaction at room temperature, geometric mean in case of multiple measurements, read-out: HWB IC50
Protocol: Human Whole Blood assay: Pantetheinase (vanin) converts panteheine into pantothenic acid and cysteamine. Accordingly, in the described protocol vanin activity is quantified by formation of pantothenic acid after pantetheine supplementation via pantethine. The assay is applicable to identify vanin inhibitors. Compound stocks are dissolved in DMSO at 10 mM. Further dilutions are performed in RPMI 1640 medium (Gibco, #A-10491-01) and final concentrations in the assay are 0.032 nM-500 nM.
Human blood is drawn into a blood bag (1% heparin, 50 I.E./mL). Blood is aliquoted into cavities of 96-deep-well plates at 290 μL and mixed with 10 μL compound solution or vehicle (30 sec at 1400 rpm on a shaker). Equilibration follows at room temperature, 250 rpm and for 30 min. The assay is started by adding 10 μL of substrate solution (2 μM pantethine in 1 mM DTT, 0.0025% Brij-35, 50 mM HEPES, pH7.5) to each well, except for some blank wells which receive […] substrate buffer (1 mM DTT, 0.0025% Brij-35, 50 mM HEPES, pH7.5) only. Samples are thoroughly shaken (30 sec, 1400 rpm) and reaction is allowed to take place at room temperature, 250 rpm and for 5 min. The reaction is stopped by addition of a vanin tool inhibitor in excess (BI-1 total conc. 10 μM). Centrifugation of the plate follows at 4° C., 665 G for 10 min. Then the blood plasma samples (100 μL) are transferred into another 96-deep-well plate and proteins are precipitated (5 min on ice) by adding 100 μL of ice cold precipitation solution (1 μM labelled pantothenic acid (di-β-alanine-13C6,15N2 calcium salt, Sigma, #705837) in acetonitrile).
Afterwards the plate is centrifuged (4° C., 3220 G, 10 min) and supernatants (50 μL) are collected into another 96-deep-well plate and mixed (10 sec, 1400 rpm) with 150 μL ice cold formic acid (0.1%, Carl Roth GmbH+Co.KG, #CP03.1). The formation of pantothenic acid is detected by RapidFire Mass Spectrometry. A TripleQuad 6500+(ABSciex, Germany) is equipped with an LC-1290 system, a RapidFire autosampler (Agilent, Germany) and a C18 cartridge Type C 12 μL (Agilent Cat #G9526-80000). Mobile phase A is consisting of 0.09% formic acid and 0.01% trifluoroacetic acid in water and mobile phase B of 0.09% formic acid and 0.01% trifluoroacetic acid in acetonitrile/methanol/water=47.5/47.5/5.

## CC(=O)N(C)[C@H]1CCN(C(=O)c2ccc(N[C@@H](C)c3nc4ccccc4[nH]3)nc2)C1 [Example 5.23]
[1]
  IC50: 1.43 nM
Pantetheinase (vanin)
  IC50: 4.1 nM

## CN(C(=O)C1CCC1)[C@H]1CCN(C(=O)c2ccc(NCc3cnc4ccccn34)nc2)C1 [Example 4.1, N-[(3S)-1-{6-[({Imidazo[1,2-a]pyridin-3-yl}methyl)amino]pyridine-3-carbonyl}pyrrolidin-3-yl]-N-methylcyclobutanecarboxamide]
[1]
  IC50: 0.1 nM
Pantetheinase (vanin)
  IC50: 1.63 nM

## C[C@H](Nc1ccc(C(=O)N2CC[C@H](N(C)C(=O)C3CC(F)(F)C3)C2)cn1)c1cnc2[nH]ccc2c1 [Example 1.6]
[1]
  IC50: 0.12 nM
Pantetheinase (vanin)
  IC50: 6.38 nM

## C[C@H](Nc1ccc(C(=O)N2CC[C@H](N(C)C(=O)C3CCC3)C2)cn1)c1cnc2[nH]ccc2c1 [Example 1.4]
[1]
  IC50: 0.1 nM
Pantetheinase (vanin)
  IC50: 2.07 nM

## CC(=O)N(C)[C@H]1CCN(C(=O)c2ccc(NCc3n[nH]c4ccccc34)nc2)C1 [Example 5.14]
[1]
  IC50: 0.36 nM
Pantetheinase (vanin)
  IC50: 1.69 nM

## CC(=O)N(C)[C@H]1CCN(C(=O)c2ccc(N[C@@H](C)c3ccc4nc[nH]c4c3)nc2)C1 [Example 5.36]
[1]
  IC50: 0.22 nM
Pantetheinase (vanin)
  IC50: 4.86 nM

## CC(=O)N(C)[C@H]1CCN(C(=O)c2ccc(NCc3ccc4nc[nH]c4c3)nc2)C1 [Example 5.7]
[1]
  IC50: 0.14 nM
Pantetheinase (vanin)
  IC50: 4.49 nM

## CC(=O)N(C)[C@H]1CCN(C(=O)c2ccc(NCc3ncn4ccccc34)nc2)C1 [Example 5.19]
[1]
  IC50: 0.75 nM
Pantetheinase (vanin)
  IC50: 3.69 nM

## CC(=O)N(C)[C@H]1CCN(C(=O)c2ccc(NCc3ccnc4[nH]ccc34)nc2)C1 [Example 5.13]
[1]
  IC50: 0.28 nM
Pantetheinase (vanin)
  IC50: 1.71 nM

## C[C@H](Nc1ccc(C(=O)N2CC[C@H](N(C)C(=O)C3CC3)C2)cn1)c1cnc2[nH]ccc2c1 [Example 1.2]
[1]
  IC50: 0.09 nM
Pantetheinase (vanin)
  IC50: 1.94 nM

## CC(=O)N(C)[C@H]1CCN(C(=O)c2ccc(NCc3cncc4ccsc34)nc2)C1 [Example 5.1, N-Methyl-N-[(3S)-1-{6-[({thieno[3,2-c]pyridin-7-yl}methyl)amino]pyridine-3-carbonyl}pyrrolidin-3-yl]acetamide]
[1]
  IC50: 0.04 nM
Pantetheinase (vanin)
  IC50: 1.17 nM

## C[C@H](Nc1ccc(C(=O)N2CC[C@H](N(C)C(=O)C3CCC3)C2)cn1)c1cnc2[nH]ccc2c1 [Example 1.5]
[1]
  IC50: 0.11 nM
Pantetheinase (vanin)
  IC50: 1.58 nM

## CC(=O)N(C)[C@H]1CCN(C(=O)c2ccc(NC(C)c3cccc4[nH]ccc34)nc2)C1 (some centres unmarked) [Example 5.10]
[1]
  IC50: 0.18 nM
Pantetheinase (vanin)
  IC50: 1.41 nM

## CC(=O)N(C)[C@H]1CCN(C(=O)c2ccc(NCc3noc4c3CCCC4)nc2)C1 [Example 5.21]
[1]
  IC50: 0.79 nM
Pantetheinase (vanin)
  IC50: 3.4 nM

## CC(=O)N(C)[C@H]1CCN(C(=O)c2ccc(N[C@@H](C)c3ccc4nn(C)cc4c3)nc2)C1 [Example 5.38]
[1]
  IC50: 0.36 nM
Pantetheinase (vanin)
  IC50: 1.37 nM

## C[C@H](Nc1ccc(C(=O)N2CC[C@H](N(C)C(=O)C3(C#N)CC3)C2)cn1)c1cnc2[nH]ccc2c1 [Example 1.3]
[1]
  IC50: 0.1 nM
Pantetheinase (vanin)
  IC50: 3.05 nM

## CC(=O)N(C)[C@H]1CCN(C(=O)c2ccc(N[C@@H](C)c3cccc4[nH]ncc34)nc2)C1 [Example 7.1, N-[(3S)-1-(6-{[(1S)-1-(1H-Indazol-4-yl)ethyl]amino}pyridine-3-carbonyl)pyrrolidin-3-yl]-N-methylacetamide]
[1]
  IC50: 0.33 nM
Pantetheinase (vanin)
  IC50: 7.66 nM

## CC(=O)N(C)[C@H]1CCN(C(=O)c2ccc(N[C@@H](C)c3ccc4[nH]ncc4c3)nc2)C1 [Example 5.8]
[1]
  IC50: 0.16 nM
Pantetheinase (vanin)
  IC50: 1.71 nM

## CC(=O)N(C)[C@H]1CCN(C(=O)c2ccc(NCc3n[nH]c4ccc(Cl)cc34)nc2)C1 [Example 2.1, N-[1(3S)-1-(6-{1[(5-Chloro-1H-indazol-3-yl)methyl]amino}pyridine-3-carbonyl)pyrrolidin-3-yl]-N-methylacetamide]
[1]
  IC50: 0.23 nM
Pantetheinase (vanin)
  IC50: 5.03 nM

## CC(=O)N(C)[C@H]1CCN(C(=O)c2ccc(NCc3c(Cl)nc4sccn34)nc2)C1 [Example 5.4]
[1]
  IC50: 0.12 nM
Pantetheinase (vanin)
  IC50: 1.59 nM

## O=C(c1ccc(NCc2cnc3ccccn23)nc1)N1CC[C@H](N2CCCC2=O)C1 [Example 1.15]
[1]
  IC50: 0.19 nM
Pantetheinase (vanin)
  IC50: 4.82 nM

## CC(=O)N(C)[C@H]1CCN(C(=O)c2ccc(NCc3cccc4[nH]ncc34)nc2)C1 [Example 5.3]
[1]
  IC50: 0.09 nM
Pantetheinase (vanin)
  IC50: 11.2 nM

## CC(=O)N(C)[C@H]1CCN(C(=O)c2ccc(NCc3cccc4[nH]ccc34)nc2)C1 [Example 5.6]
[1]
  IC50: 0.13 nM
Pantetheinase (vanin)
  IC50: 2.1 nM

## CN(C(=O)C1(C)CCC1)[C@H]1CCN(C(=O)c2ccc(NCc3cnc4ccccn34)nc2)C1 [Example 1.14]
[1]
  IC50: 0.18 nM
Pantetheinase (vanin)
  IC50: 2.59 nM

## CC1(C#N)CCN(C(=O)c2ccc(NCc3ncn4ccccc34)nc2)C1 (centres unmarked) [Example 1.17]
[1]
  IC50: 0.83 nM
Pantetheinase (vanin)
  IC50: 10.4 nM

## CC(=O)N(C)[C@H]1CCN(C(=O)c2ccc(NCc3cccc4ncccc34)nc2)C1 [Example 5.24]
[1]
  IC50: 1.23 nM
Pantetheinase (vanin)
  IC50: 3.88 nM

## CC(=O)N(C)[C@H]1CCN(C(=O)c2ccc(NCc3csc4ccccc34)nc2)C1 [Example 3.1, N-[(3S)-1-(6-{1[(1-Benzothiophen-3-yl)methyl]amino}pyridine-3-carbonyl)pyrrolidin-3-yl]-N-methylacetamide]
[1]
  IC50: 0.41 nM
Pantetheinase (vanin)
  IC50: 7.21 nM

## CC(=O)N(C)[C@H]1CCN(C(=O)c2ccc(N[C@@H](C)c3cnc4[nH]ccc4c3)nc2)C1 [Example 5.9]
[1]
  IC50: 0.18 nM
Pantetheinase (vanin)
  IC50: 10.3 nM

## C[C@H](Nc1ccc(C(=O)N2CC[C@H](N(C)C(=O)C3(C#N)CC3)C2)cn1)c1cnc2[nH]ccc2c1 [Example 1.7]
[1]
  IC50: 0.13 nM
Pantetheinase (vanin)
  IC50: 1.7 nM

## CC(=O)N(C)[C@H]1CCN(C(=O)c2ccc(N[C@@H](C)c3cccc4c3cnn4C)nc2)C1 [Example 5.2]
[1]
  IC50: 0.07 nM
Pantetheinase (vanin)
  IC50: 1.68 nM

## CN(C(=O)C1CC(F)(F)C1)[C@H]1CCN(C(=O)c2ccc(NCc3cnc4ccccn34)nc2)C1 [Example 1.12]
[1]
  IC50: 0.1 nM
Pantetheinase (vanin)
  IC50: 1.48 nM

— patent US12358910B2, “Heteroaromatic compounds as Vanin inhibitors” (Boehringer Ingelheim International GmbH, priority 2018, dated 2025)
